According to ChEMBL document CHEMBL1150998, “Enzymatic resolution of AMPA by use of -chymotrypsin” (Bioorg Med Chem Lett, 1993):

Assays:
[1] = molecular target: Glutamate receptor ionotropic, AMPA (Rattus norvegicus, UniProt P19490+P19491+P19492+P19493); experiment: Tested for the inhibitory activity of against Ionotropic glutamate receptor AMPA by [3H]- AMPA binding assay; assay type: protein-complex assay
Rattus norvegicus = organism: Rattus norvegicus; experiment: Tested in vitro for the dose response curve in rat cortical wedge preparation

Structure (SMILES) | IC50 [1] | EC50 (Rattus norvegicus)
CCOC(=O)C(N)Cc1c(OCC)noc1C (stereo not drawn) | > 100 µM | –
Cc1onc(O)c1CC(N)C(=O)O (single isomer, unassigned; form 1) | – | 3.8 µM
Cc1onc(O)c1CC(N)C(=O)O (single isomer, unassigned; form 2) | – | 580 µM
